Experimental data published in patent US6365598B1, “Pyrroloquinolines for treatment of obesity” (Vernalis Research Limited, priority 1998, dated 2002).
Counter-ions that a name gives are not always drawn.

Key:
[1] = target: T1, human 5-HT2B receptors (Homo sapiens, UniProt P41595); experiment: Binding to 5-HT2B receptor, [3H]-5-HT, CHO cell line; conditions: read-out: Ki (2B)
T1 construct: expressed in transfected cells; host or cells: CHO cell line
Procedure: (§1) 1. Binding to Serotonin Receptors
(§2) The binding of compounds of formula (I) to serotonin receptors was determined in vitro by standard methods. The preparations were investigated in accordance with the assays given hereinafter.
Method (b): For the binding to the 5-HT2B receptor the 5-HT2B receptors were radiolabeled with [^3H]-5-HT. The affinity of the compounds for human 5-HT2B receptors in a CHO cell line was determined according to the procedure of K. Schmuck, C. Ullmer, P. Engels and H. Lubbert, FEBS Lett., 1994, 342, 85-90.

[2] = target: T2, 5-HT2c receptors (Homo sapiens, UniProt P28335); experiment: Binding to 5-HT2C receptor, [3H]-5-HT, CHO cell line; parameters: expressed in transfected cells; host or cells: CHO cell line; conditions: read-out: Ki (2C)
T2 sequence (P28335 33-458): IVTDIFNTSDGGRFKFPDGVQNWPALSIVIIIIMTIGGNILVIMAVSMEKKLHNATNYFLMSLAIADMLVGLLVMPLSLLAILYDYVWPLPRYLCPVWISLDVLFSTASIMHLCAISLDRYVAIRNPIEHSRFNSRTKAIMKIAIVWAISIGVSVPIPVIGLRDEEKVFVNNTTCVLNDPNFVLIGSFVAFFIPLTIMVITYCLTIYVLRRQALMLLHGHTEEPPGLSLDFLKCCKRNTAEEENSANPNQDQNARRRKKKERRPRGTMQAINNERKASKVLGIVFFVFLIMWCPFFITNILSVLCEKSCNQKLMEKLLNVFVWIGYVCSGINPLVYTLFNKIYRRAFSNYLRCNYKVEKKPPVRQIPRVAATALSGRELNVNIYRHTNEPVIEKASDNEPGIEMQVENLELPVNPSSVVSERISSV
Procedure: as §1, §2
Method (a): For the binding to the 5-HT2c, receptor the 5-HT2c receptors were radiolabeled with [^3H]-5-HT. The affinity of the compounds for 5-HT2c receptors in a CHO cell line was determined according to the procedure of D. Hoyer, G. Engel and H. O. Kalkman, European J. Pharmacol., 1985, 118,13-23.

[3] = target: T3, 5-HT2A receptors (Homo sapiens, UniProt P28223); experiment: Binding to 5-HT2A receptor, [125I]-DOI, CHO cell line; parameters: expressed in transfected cells; host or cells: CHO cell line; conditions: read-out: Ki (2A)
Procedure: as §1, §2
Method (c): For the binding to the 5-HT2A receptor the 5-HT2A receptors were radiolabeled with [^125I]-DOI. The affinity of the compounds for 5-HT2A receptors in a CHO cell line was determined according to the procedure of D. J. McKenna and S. J. Peroutka, J. Neurosci., 1989, 9, 3482-90.

[4] = test system: food deprived animals; experiment: Regulation of feeding behaviour: food consumption in food deprived animals; format: in vivo; conditions: 2 hours after a dose of 10 mg/kg s.c.
Procedure: 4. Regulation of Feeding Behaviour
The in vivo activity of compounds of formula (I) on feeding behaviour was assayed by measuring food consumption in food deprived animals.
Test compounds were assessed following acute administration. Each study utilised a between-subjects design (typically n=8) and compared the effects of doses of the test agent to those of vehicle and a positive control.
The anorectic drug d-fenfluramine normally serves as a positive control. The route of drug administration, drug volume and injection-test-interval are dependent upon the compounds used. A palatable wet mash, made by adding powdered lab chow and water in a ratio of 1:2 and mixing to a smooth consistency, was presented in 120 ML glass jars for 60 minutes each day. Intake was measured by weighing before and after each session. Care was taken to collect all spillage. Animals were allowed to habituate to the wet mash meal for 10 days. After drug administration, animals were allowed to consume the wet mash. Food consumption was assayed at pre-determined time points (typically 1, 2 and 4 hours after administration). Food intake data were subjected to one-way analysis of variance (ANOVA) with drug as a between-subjects factor. […] All statistical analyses were performed using Statistica Software, Version 5.0 (Statsoft Inc.) and Microsoft Excel 7.0 (Microsoft Corp.).

[5] = target: T3, 5-HT2A receptors; experiment: Functional activity, FLIPR calcium assay, CHO cells expressing human 5-HT2A; format: cell-based; parameters: expressed in transfected cells; host or cells: CHO cells; conditions: for EC50: FLIPR, CHO cells, Fluo-3-AM, read-out: h5-HT2A EC50; for h5-HT2A Relative Efficacy (%): maximum fluorescent signal relative to 10 μM 5-HT (defined as 100%)
Procedure: (§3) The functional activity of compounds of formula (I) was assayed using a Fluorimetric Imaging Plate reader (FLIPR). CHO cells expressing the human 5-HT2C or human 5-HT2A receptors were counted and plated into standard 96 well microtitre plates on the day before testing to give a confluent monolayer. The cells were then dye loaded with the calcium sensitive dye, Fluo-3-AM. Unincorporated dye was removed using an automated cell washer to leave a total volume of 100 μL/well of assay buffer (Hanks balanced salt solution containing 20 mM Hepes and 2.5 mM probenecid). The drug (dissolved in 50 μL of the assay buffer) was added at a rate of 70 μL/sec to each well of the FLIPR 96 well plate during fluorescence measurements. The measurements were taken at 1 sec intervals and the maximum fluorescent signal was measured (approx 10-15 secs after drug addition) and compared with the response produced by 10 μM 5-HT (defined as 100%) to which it was expressed as a percentage response (relative efficacy). Dose response curves were constructed using Graphpad Prism (Graph Software Inc.).

[6] = target: T2, 5-HT2c receptors; experiment: Functional activity, FLIPR calcium assay, CHO cells expressing human 5-HT2C; format: cell-based; parameters: expressed in transfected cells; host or cells: CHO cells; conditions: for EC50: FLIPR, CHO cells, Fluo-3-AM, read-out: h5-HT2C EC50; for h5-HT2C Relative Efficacy (%): maximum fluorescent signal relative to 10 μM 5-HT (defined as 100%)
Procedure: as §3

T3 sequence (P28223 whole entry): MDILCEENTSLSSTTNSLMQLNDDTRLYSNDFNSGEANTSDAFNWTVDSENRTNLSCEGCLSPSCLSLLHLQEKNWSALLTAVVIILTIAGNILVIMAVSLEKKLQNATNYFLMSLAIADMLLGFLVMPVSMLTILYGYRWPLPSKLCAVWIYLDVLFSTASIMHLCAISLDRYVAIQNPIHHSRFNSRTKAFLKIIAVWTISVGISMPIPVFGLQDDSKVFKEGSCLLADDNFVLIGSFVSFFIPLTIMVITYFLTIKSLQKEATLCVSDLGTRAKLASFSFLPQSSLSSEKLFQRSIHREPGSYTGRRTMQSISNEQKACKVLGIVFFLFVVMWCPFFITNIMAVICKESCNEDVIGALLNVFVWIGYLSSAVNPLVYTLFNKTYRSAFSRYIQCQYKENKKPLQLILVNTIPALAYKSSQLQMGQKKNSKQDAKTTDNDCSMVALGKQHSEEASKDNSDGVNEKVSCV
T1 sequence (P41595 whole entry): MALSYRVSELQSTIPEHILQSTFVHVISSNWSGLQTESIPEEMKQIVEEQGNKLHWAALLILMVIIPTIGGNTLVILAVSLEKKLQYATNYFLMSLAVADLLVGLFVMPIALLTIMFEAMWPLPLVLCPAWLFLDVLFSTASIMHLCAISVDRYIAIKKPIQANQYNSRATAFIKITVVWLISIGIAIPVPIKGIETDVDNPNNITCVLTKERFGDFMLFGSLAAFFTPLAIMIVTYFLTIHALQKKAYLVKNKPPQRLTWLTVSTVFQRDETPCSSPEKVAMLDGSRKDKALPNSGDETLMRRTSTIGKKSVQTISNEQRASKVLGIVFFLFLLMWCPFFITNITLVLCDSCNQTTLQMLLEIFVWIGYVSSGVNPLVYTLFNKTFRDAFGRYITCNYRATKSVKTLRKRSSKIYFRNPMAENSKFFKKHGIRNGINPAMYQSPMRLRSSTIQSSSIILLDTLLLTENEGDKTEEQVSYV

| SMILES | melting point [°C] | Ki [1] [nM] | Ki [2] [nM] | Ki [3] [nM] | hypophagia (food consumption) [4] | EC50 [5] [nM] | h5-HT2A Relative Efficacy (%) [5] [%] | EC50 [6] [nM] | h5-HT2C Relative Efficacy (%) [6] [%] |
| --- | --- | --- | --- | --- | --- | --- | --- | --- | --- |
| COc1nccc2c1ccc1ccn(C[C@H](C)N)c12 (as salt: fumarate) | 180 to 182 | – | – | – | – | – | – | – | – |
| C[C@H](N)Cn1ccc2ccc3cnccc3c21 (as salt: fumarate) [Example 4, (S)-1-(1H-Pyrrolo[2,3-f]isoquinolin-1-yl)-2-propylamine fumarate] | 165 | – | – | – | – | – | – | – | – |
| C[C@H](N)Cn1ccc2cc(Cl)c3ncccc3c21 (as salt: fumarate) [Example 5, (S)-1-(5-Chloro-1H-pyrrolo[2,3-f]-quinolin-1-yl)-2-propylamine fumarate] | 228 to 229 | – | – | – | – | – | – | – | – |
| C[C@H](N)Cn1ccc2ccc3ccncc3c21 (as salt: fumarate) [Example 7, (S)-1-(1H-Pyrrolo[3,2-h]isoquinolin-1-yl)-2-propylamine fumarate] | 153 to 154 | – | – | – | – | – | – | – | – |
| C[C@H](N)Cn1ccc2ccc3cccnc3c21 (as salt: fumarate) [Example 8, (S)-1-(1H-Pyrrolo[3,2-h]quinolin-1-yl)-2-propylamine hemifumarate] | 212 to 214 | – | – | – | – | – | – | – | – |
| C[C@H](N)Cn1ccc2ccc3ncccc3c21 (as salt: hydrochloride) [Example 1, (S)-1-(1H-Pyrrolo[2,3-f]quinolin-1-yl)-2-propylamine] | 222 to 224 | – | – | – | – | – | – | – | – |
| C[C@@H](N)Cn1ccc2ccc3ncccc3c21 (as salt: hydrochloride) [Example 2, (R)-1-(1H-Pyrrolo[2,3-f]quinolin-1-yl)-2-propylamine] | 223 to 225 | – | – | – | – | – | – | – | – |
| CC(N)Cn1ccc2ccc3ncccc3c21 (racemic) [Example 3, (RS)-1-(1H-Pyrrolo[2,3-f]quinolin-1-yl)-2-propylamine hydrochloride] | – | 9 | 24 | 40 | – | – | – | – | – |
| C[C@H](N)Cn1ccc2ccc3ncccc3c21 [Example 1, (S)-1-(1H-Pyrrolo[2,3-f]quinolin-1-yl)-2-propylamine] | – | 12 | 9 | 45 | significant hypophagia | 360 | 100 | 12 | 93 |
| C[C@@H](N)Cn1ccc2ccc3ncccc3c21 [Example 2, (R)-1-(1H-Pyrrolo[2,3-f]quinolin-1-yl)-2-propylamine] | – | 5 | 22 | 37 | significant hypophagia | 87 | 96 | 7 | 85 |
| C[C@H](N)Cn1ccc2ccc3cnccc3c21 [Example 4, (S)-1-(1H-Pyrrolo[2,3-f]isoquinolin-1-yl)-2-propylamine fumarate] | – | 84 | 156 | 173 | – | 870 | 54 | 142 | 89 |
| C[C@H](N)Cn1ccc2cc(Cl)c3ncccc3c21 [Example 5, (S)-1-(5-Chloro-1H-pyrrolo[2,3-f]-quinolin-1-yl)-2-propylamine fumarate] | – | – | – | – | – | 52 | 80 | 5 | 86 |
| C[C@H](N)Cn1ccc2ccc3ccncc3c21 [Example 7, (S)-1-(1H-Pyrrolo[3,2-h]isoquinolin-1-yl)-2-propylamine fumarate] | – | – | – | – | – | 636 | 61 | 36 | 83 |
| C[C@H](N)Cn1ccc2ccc3cccnc3c21 [Example 8, (S)-1-(1H-Pyrrolo[3,2-h]quinolin-1-yl)-2-propylamine hemifumarate] | – | 88 | 45 | 90 | – | 1070 | 31 | 99 | 24 |
| C[C@@H](Cn1ccc2ccc3ncccc3c21)NCc1ccc2c(c1)OCO2 [Example 9, (S)-[1-(1H-Pyrrolo[2,3-f]quinolin-1-yl)-2-propyl]-(3,4-methylenedioxybenzyl)amine bis-fumarate] | – | – | – | – | – | 1300 | 65 | 85 | 90 |
